Experimental findings from patent publication EP2712863B1, “Novel inhibitors of bacterial biofilms and related methods” (Sequoia Sciences, Inc., priority 2012, dated 2014) are described below.

Molecules are shown by their SMILES. Converted amounts (≈) assume the structure as drawn. Where two headings read alike, the source gives them in different places.

In assay [1] the test system is P. aeruginosa. The assay can be described thus: Biofilm growth assay (spreading biofilm on semi-solid agar). The class given is cell-based. The following applies: Pseudomonas aeruginosa, read-out: P. aeruginosa. From the text:
(§1) "Biofilm Growth Assay" refers to an assay performed on semi-solid agar surface where the bacteria collectively move out from an inoculation point. To those skilled in the art, the act of bacteria collectively moving out from an inoculation point on a semi-solid surface may be referred to as swarming or a spreading biofilm. (Anderson, et al Microbiology, 2003, 149, 37-46; Daniels, et al. FEMS Microbiology Reviews, 2004, 28, 261-289). The procedure to perform this assay is described in detail in the Examples. This type of surface motility by bacteria has been reported in the literature by those skilled in the art.
(§2) The biofilm growth assay was carried out to measure swarming or biofilm spreading on semi-solid agar media in round plates (for example, 100 × 15 mm), also referred to as Petri dishes. For E. coli, the plates contained LB medium with 0.6% agar and 0.5% glucose. P. aeruginosa plates were made with M8 agar supplemented with 0.2% glucose, 100 µM CaCl2, 1 mM MgSO4, and 0.5% Casamino acids. The agar plates of this assay consisted of 0.4% to 0.7% agar (Bacto or Noble agar), although other media may also be used as described in the literature and known to those skilled in the art. Test compounds at the desired concentration were added to the cooled, autoclaved media. Portions of the media were then poured into the plates (20 mL/plate), and the plates allowed to dry at room temperature for approximately 3 to 4 hours. Alternatively, however, plates may be dried in a laminar flow hood for approximately fifteen to twenty minutes. Overnight cultures were grown in a 37°C shaker in LB (E. coli) or TSB (P. aeruginosa). Plates were inoculated by placing 5 µL of the appropriate overnight culture in the centers of the plates. The plates then were incubated overnight at 37°C. The area of the zone of spreading bacteria was then measured and replicates are averaged. Percent inhibition was calculated as 100 × (area without compound - area with compound)/(area without compound). An active compound was considered that which reduces the area of the spreading biofilm compared to negative controls by greater than or equal to 85%. The values shown in Table 1 are the concentrations of compounds (µg/ml) tested in the biofilm growth assay that reduce the area of the spreading biofilm compared to negative controls by greater than or equal to 85% unless noted differently in Table 1. A > ("greater than" symbol) as used in Table 1 is well understood to those skilled in the art as an indication that the listed concentration was not effective at this concentration.
(§3) All of the compounds shown in Tables 2, 3, 4, and 5, below, were prepared semi-synthetically from oleanolic acid, except for Compounds 2 and 3. Compound 2 was prepared from ursolic acid. Compound 3 was prepared from hederagenin, but could also be prepared from an oleanolic acid analog with a hydroxyl at C23 or C24. These compounds were tested in the spreading biofilm assay according to the methods detailed in Example I, above. The values shown in Tables 2, 3, 4, and 5 are the concentrations of compounds tested in the biofilm growth assay that reduce the area of the spreading biofilm compared to negative controls by greater than or equal to 85%. Table 2. Compound 1 and its Analogs and their inhibitory concentrations in the biofilm growth assay as detailed in Example I, above

Assay [2] concerns E. coli. Described as above. Type of assay: cell-based. Conditions: Escherichia coli, read-out: E. coli.
From the text: as §1, §2, §3

Setting [3] is: Table 3, concentration that reduces the area of the spreading biofilm by >= 85%.
[4] abbreviates: Table 4, concentration that reduces the area of the spreading biofilm by >= 85%.
Where [5] appears, read: Table 1, concentration that reduces the area of the spreading biofilm vs negative controls by >= 85%, > means not effective at this concentration.

With `CN(C)c1cc(C2=C3[C@@H]4CC(C)(C)CC[C@]4(C(=O)O)CC[C@@]3(C)[C@]3(C)CC[C@H]4C(C)(C)c5n[nH]c(N)c5C[C@]4(C)C3C2)ccn1` (stereo partly drawn) [Compound 22, (4aS,6aS,6bR,8aR,13aR,15bS)-12-Amino-15-(2-(dimethylamino)pyridin-4-yl)-2,2,6a,6b,9,9,13a-heptamethyl-2,3,4,4a,5,6,6a,6b,7,8,8a,9,11,13,13a,13b,14,15b-octadecahydro-1H-chryseno[1,2-f]indazole-4a-carboxylic acid], the IC85 is 1 mg/L (≈ 1.63 µM) in assay [1] (setting [3]) and greater than 2 mg/L in assay [2] (setting [3]).
The like results for `CN1CCN(Cc2occc2C2=C3[C@@H]4CC(C)(C)CC[C@]4(C(=O)O)CC[C@@]3(C)[C@]3(C)CC[C@H]4C(C)(C)c5n[nH]c(N)c5C[C@]4(C)C3C2)CC1` (stereo partly drawn) [Compound 36, (4aS,6aS,6bR,8aR,13aR,15bS)-12-Amino-2,2,6a,6b,9,9,13a-heptamethyl-15-(2-((4-methylpiperazin-1-yl)methyl)furan-3-yl)-2,3,4,4a,5,6,6a,6b,7,8,8a,9,11,13,13a,13b,14,15b-octadecahydro-1H-chryseno[1,2-f]indazole-4a-carboxylic acid] were, in that order, greater than 1 mg/L and 2 mg/L (≈ 2.98 µM).
Take `CNCCc1c([C@]23CCC(C)(C)CC2C2=CCC4[C@@]5(C)Cc6c(n[nH]c6N)C(C)(C)C5CC[C@@]4(C)[C@]2(C)CC3)n[nH]c1O` (stereo partly drawn) [Compound 86, 3-((4aS,6aS,6bR,13aR)-12-Amino-2,2,6a,6b,9,9,13a-heptamethyl-2,3,4,4a,5,6,6a,6b,7,8,8a,9,11,13,13a,13b,14,15b-octadecahydro-1H-chryseno[1,2-f]indazol-4a-yl)-4-(2-(methylamino)ethyl)-1H-pyrazol-5-ol]: the IC85 came out at 0.5 mg/L (≈ 0.849 µM) in assay [1] (setting [4]) and 2 mg/L (≈ 3.4 µM) in assay [2] (setting [4]).
As for `C=CC1=C2[C@@H]3CC(C)(C)CC[C@]3(C(=O)O)CC[C@@]2(C)[C@]2(C)CC[C@H]3C(C)(C)c4n[nH]c(N)c4C[C@]3(C)C2C1` (stereo partly drawn) [Compound 13, (4aS,6aS,6bR,8aR,13aR,15bS)-12-Amino-2,2,6a,6b,9,9,13a-heptamethyl-15-vinyl-2,3,4,4a,5,6,6a,6b,7,8,8a,9,11,13,13a,13b,14,15b-octadecahydro-1H-chryseno[1,2-f]indazole-4a-carboxylic acid], the IC85 was 0.5 mg/L (≈ 0.962 µM) in assay [1] (setting [3]) and 1 mg/L (≈ 1.92 µM) in assay [2] (setting [3]).
For `CC1(C)CC[C@]2(c3n[nH]c(O)c3F)CC[C@]3(C)C(=CCC4[C@@]5(C)Cc6c(n[nH]c6N)C(C)(C)C5CC[C@]43C)C2C1` (stereo partly drawn) [Compound 83, 3-((4aS,6aS,6bR,13aR)-12-Amino-2,2,6a,6b,9,9,13a-heptamethyl-2,3,4,4a,5,6,6a,6b,7,8,8a,9,11,13,13a,13b,14,15b-octadecahydro-1H-chryseno[1,2-f]indazol-4a-yl)-4-fluoro-1H-pyrazol-5-ol], the IC85 in assay [1] (setting [4]) was found to be 0.25 mg/L (≈ 0.455 µM); in assay [2] (setting [4]), 0.5 mg/L (≈ 0.909 µM).
Take `CC1(C)CC[C@]2(C(=O)O)CC[C@]3(C)C(=C(c4ccc(N5CCCC5)nc4)CC4[C@@]5(C)Cc6c(n[nH]c6N)C(C)(C)C5CC[C@]43C)C2C1` (stereo partly drawn) [Compound 45, (4aS,6aS,6bR,13aR)-12-Amino-2,2,6a,6b,9,9,13a-heptamethyl-15-(6-(pyrrolidin-1-yl)pyridin-3-yl)-2,3,4,4a,5,6,6a,6b,7,8,8a,9,11,13,13a,13b,14,15b-octadecahydro-1H-chryseno[1,2-f]indazole-4a-carboxylic acid]: the IC85 turned out to be 0.5 mg/L (≈ 0.781 µM) in assay [1] (setting [3]) and 1 mg/L (≈ 1.56 µM) in assay [2] (setting [3]).
The like results for `CC1(C)CC[C@]2(C(=O)O)CC[C@]3(C)C(=C(c4cccc(F)c4)CC4[C@@]5(C)Cc6c(n[nH]c6N)C(C)(C)[C@@H]5CC[C@]43C)[C@@H]2C1` (stereo partly drawn) [Compound 17, (4aS,6aS,6bR,8aR,13aR,15bS)-12-Amino-15-(3-fluorophenyl)-2,2,6a,6b,9,9,13a-heptamethyl-2,3,4,4a,5,6,6a,6b,7,8,8a,9,11,13,13a,13b,14,15b-octadecahydro-1H-chryseno[1,2-f]indazole-4a-carboxylic acid] were, in that order, 0.5 mg/L (≈ 0.851 µM) and greater than 2 mg/L.
On the same counts, the results for `CC1(C)CC[C@]2(C(=O)O)CC[C@]3(C)C(=C(c4ccccc4N)CC4[C@@]5(C)Cc6c(n[nH]c6N)C(C)(C)C5CC[C@]43C)C2C1` (stereo partly drawn) [Compound 23, (4aS,6aS,6bR,13aR)-12-Amino-15-(2-aminophenyl)-2,2,6a,6b,9,9,13a-heptamethyl-2,3,4,4a,5,6,6a,6b,7,8,8a,9,11,13,13a,13b,14,15b-octadecahydro-1H-chryseno[1,2-f]indazole-4a-carboxylic acid] are 1 mg/L (≈ 1.71 µM) and 2 mg/L (≈ 3.42 µM).
In the case of `C[C@H]1[C@H](C)CC[C@]2(C(=O)O)CC[C@]3(C)C(=CC[C@@H]4[C@@]5(C)CC[C@H](O)C(C)(C)[C@@H]5CC[C@]43C)[C@H]12` [Ursolic acid, reference compound], the IC85 in assay [1] (setting [5]) and in assay [2] (setting [5]) was 8 mg/L (≈ 17.5 µM) throughout.
Regarding `CC1(C)CC[C@]2(C(=O)O)CC[C@]3(C)C(=C(c4cccc(O)c4)CC4[C@@]5(C)Cc6c(n[nH]c6N)C(C)(C)C5CC[C@]43C)C2C1` (stereo partly drawn) [Compound 16, (4aS,6aS,6bR,13aR)-12-Amino-15-(3-hydroxyphenyl)-2,2,6a,6b,9,9,13a-heptamethyl-2,3,4,4a,5,6,6a,6b,7,8,8a,9,11,13,13a,13b,14,15b-octadecahydro-1H-chryseno[1,2-f]indazole-4a-carboxylic acid], the IC85 in assay [1] (setting [3]) turned out to be 1 mg/L (≈ 1.71 µM); in assay [2] (setting [3]) it was 2 mg/L (≈ 3.41 µM).
The like results for `CCC1=C2[C@@H]3CC(C)(C)CC[C@]3(C(=O)O)CC[C@@]2(C)[C@]2(C)CC[C@H]3C(C)(C)c4n[nH]c(N)c4C[C@]3(C)C2C1` (stereo partly drawn) [Compound 14, (4aS,6aS,6bR,8aR,13aR,15bS)-12-Amino-15-ethyl-2,2,6a,6b,9,9,13a-heptamethyl-2,3,4,4a,5,6,6a,6b,7,8,8a,9,11,13,13a,13b,14,15b-octadecahydro-1H-chryseno[1,2-f]indazole-4a-carboxylic acid] were, in that order, 0.5 mg/L (≈ 0.958 µM) and 2 mg/L (≈ 3.83 µM).
On the same counts, the results for `CC1(C)CC[C@]2(C(=O)O)CC[C@]3(C)C(=C(c4ccc(N5CCC(N)C5)nc4)CC4[C@@]5(C)Cc6c(n[nH]c6N)C(C)(C)C5CC[C@]43C)C2C1` (stereo partly drawn) [Compound 58, (4aS,6aS,6bR,13aR)-12-Amino-15-(6-(3-aminopyrrolidin-1-yl)pyridin-3-yl)-2,2,6a,6b,9,9,13a-heptamethyl-2,3,4,4a,5,6,6a,6b,7,8,8a,9,11,13,13a,13b,14,15b-octadecahydro-1H-chryseno[1,2-f]indazole-4a-carboxylic acid] are 1 mg/L (≈ 1.53 µM) and 2 mg/L (≈ 3.05 µM).
On to `CC1(C)CC[C@]2(C(=O)Nc3cc(O)[nH]n3)CC[C@]3(C)C(=CCC4[C@@]5(C)Cc6c(n[nH]c6N)C(C)(C)C5CC[C@]43C)C2C1` (stereo partly drawn) [Compound 66, (4aS,6aS,6bR,13aR)-12-Amino-N-(5-hydroxy-1H-pyrazol-3-yl)-2,2,6a,6b,9,9,13a-heptamethyl-2,3,4,4a,5,6,6a,6b,7,8,8a,9,11,13,13a,13b, 14,15b-octadecahydro-1H-chryseno[1,2-f]indazole-4a-carboxamide], for which the IC85 is 0.25 mg/L (≈ 0.435 µM) in assay [1] (setting [4]) and 1 mg/L (≈ 1.74 µM) in assay [2] (setting [4]).
`CC1(C)CC[C@]2(c3nnc(O)s3)CC[C@]3(C)C(=CCC4[C@@]5(C)Cc6c(n[nH]c6N)C(C)(C)C5CC[C@]43C)C2C1` (stereo partly drawn) [Compound 78, 5-((4aS,6aS,6bR,13aR)-12-Amino-2,2,6a,6b,9,9,13a-heptamethyl-2,3,4,4a,5,6,6a,6b,7,8,8a,9,11,13,13a,13b,14,15b-octadecahydro-1H-chryseno[1,2-f]indazol-4a-yl)-1,3,4-thiadiazol-2-ol]: the IC85 in assay [1] (setting [4]) was greater than 1 mg/L; in assay [2] (setting [4]), 1 mg/L (≈ 1.82 µM).
On to `C[C@H]1[C@H](C)CC[C@]2(CO)CC[C@]3(C)C(=CC[C@@H]4[C@@]5(C)CC[C@H](O)C(C)(C)[C@@H]5CC[C@]43C)[C@H]12` [Uvaol, reference compound], for which the IC85 in assay [1] (setting [5]) is greater than 128 mg/L; in assay [2] (setting [5]) it was greater than 8 mg/L.
